Columns and labels:
HMLE-SNAIL spheroids = experiment: 3-D tumor spheroid assay (Sytox/DAPI staining); assay type: cell-based, human; settings: Sytox staining
Text: FIGS. 1F-1I show the results of a 3-D tumor spheroid assay formed by the chemotherapy-resistant breast cancer cell line, HMLE-SNAIL. […] Tumor spheroids are a model of real in vivo tumors, as they form a 3-D cell mass in which the hypoxic and often nutrient depleted microenvironment at the center of the tumor is enriched with mesenchymal, chemotherapy-resistant TIC cells. […] By staining spheroids with Sytox, which stains dead cells green, and DAPI, which stains the nuclei of all cells (living or dead), total fraction of dead cells is calculated. Also, the location of dead cells within the sphere is visualized with Sytox (green) staining. The results of FIGS. 1F-1I indicate that chaetocin a selective and potent killer of inner cells of the spheroids, enriched with mesenchymal, chemotherapy-resistant TIC cells, compared to other compounds tested. FIGS. 1J-1K show the results of a tumorsphere assay performed with TICs grown on serum-free, non-adherent culture conditions. […] The results of FIGS. 1J-1K indicate that chaetocin is effective in eliminating TICs in a dose dependent-manner.
To determine whether chaetocin affects TIC death in a tumor-like environment, 3-D tumor spheroid assays were performed in the presence or absence of chaetocin. Tumor spheroids are a model of a real tumor, as they form a 3-D cell mass similar to tumors in vivo. The local microenvironment of a spheroid recapitulates many of the in vivo properties of tumor. Importantly, the hypoxic and often nutrient depleted microenvironment at the center of the tumor is favorable for converting epithelial, non-TIC, chemotherapy-sensitive cancer cells into mesenchymal, TIC-rich, chemotherapy-resistant cells. […] Pharmacological agents were added and cell viability was calculated by staining cells with Sytox, which stains dead cells green, and DAPI, which stains the nuclei of all cells (living or dead). to provide the total cell number. Using this method, the total fraction of dead cells was calculated and compared between different drug conditions. More importantly, the location of dead cells within the sphere is visualized with Sytox (green) staining. FIGS. 1G-1I show fluorescence images of tumor spheroids under control conditions (no treatment; FIG. 1G), under treatment with various experimental chemotherapeutic agents (Y-27632, LY-450139, and IWP-L6 (Wnt); FIG. 1H), and with chaetocin treatment (FIG. 1I). […] This family of kinases are thought to be important for survival of TIC cells. IWP-L6 is an inhibitor of Wnt pathway—a pathway important for TIC cell survival and formation. LY-450139 is a NOTCH pathway inhibitor. NOTCH is also important for TIC cell viability and survival. […]

HMLE-TWIST cells = experiment: CD44/CD24 FACS analysis after chaetocin pulse and washout; assay type: cell-based, human
Experimental: Cultured mesenchymal, TIC-rich HMLE-TWIST cells were treated with increasing concentrations of chaetocin for 2 days, washed and then incubated in chaetocin-free media for two days. CD44/CD24 FACS analyses were performed either immediately or two days after chaetocin removal.
CD44/CD24 FACS analyses either were performed either immediately or 6 days after chaetocin removal.
To determine whether a short pulse of the Suv39H1/H2 inhibitor, chaetocin, is sufficient to bring about an epigenetic change, cultured HMLE-TWIST cells (also referred to as ‘HMLE-TWIST TICs’ or ‘TICs’) were exposed to different doses of chaetocin for two days, followed by washout, and replacement with regular media. Cells were tracked for their phenotypic fate (e.g., CD44/CD24 marker expression) for another two or 6 days in chaetocin-free media. In this cell line, high CD44 and low CD24 expression indicate TIC cell populations. Cells that express CD24 are considered non-TICs. […] Next, to determine whether the epigenetic change persists for periods longer than two days, a separate experiment was performed in which HMLE-TWIST cells were treated with chaetocin for two days, followed by FACS analysis of CD24/CD44 expression either immediately after or 6 days after, as schematized in the top panel of FIG. 3M.

CN1C(=O)[C@@]23C[C@]4([C@]56C[C@@]78SS[C@](CO)(C(=O)N7[C@H]5Nc5ccccc56)N(C)C8=O)c5ccccc5N[C@@H]4N2C(=O)[C@@]1(CO)SS3 [chaetocin]
location of dead cells within spheroid (HMLE-SNAIL spheroids): preferentially and effectively kills the inner spheroid cells | CD44/CD24 phenotype (TIC to non-TIC) (HMLE-TWIST cells; 0.1, 0.15, 0.2, 0.5 μM for two days, immediately after treatment): converts TICs into non-TICs in a dose dependent manner | persistence of TIC to non-TIC conversion (HMLE-TWIST cells; two or 6 days in chaetocin-free media): persist for up to six days after chaetocin removal

From US12396996B2, “Compounds, pharmaceutical compositions, and methods of their use in reversing cancer chemoresistance” (priority 2019, dated 2025)
